In PubChem BioAssay (NCI):
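How tested: cells in 96-well plates exposed to compound for 48 hours at five concentrations. Abbreviation: GI50, concentration required for 50% inhibition of growth. At the TGI there is no net growth.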

Key:
Assay in all cases: inhibition of tumour cell growth, NCI panel, 48 h
HCT-15 colon = system: HCT-15 colon
SNB-75 CNS = system: SNB-75 CNS
NCI-H522 lung = system: NCI-H522 lung
PC-3 prostate = system: PC-3 prostate
UACC-257 melanoma = system: UACC-257 melanoma
K-562 leukemia = system: K-562 leukemia
NCI-H460 lung = system: NCI-H460 lung
OVCAR-3 ovarian = system: OVCAR-3 ovarian
SNB-19 CNS = system: SNB-19 CNS
RXF 393 renal = system: RXF 393 renal
SK-MEL-2 melanoma = system: SK-MEL-2 melanoma
UACC-62 melanoma = system: UACC-62 melanoma
EKVX NSCLC = system: EKVX NSCLC
OVCAR-8 ovarian = system: OVCAR-8 ovarian
SN12C renal = system: SN12C renal
HS 578T breast = system: HS 578T breast
SK-MEL-5 melanoma = system: SK-MEL-5 melanoma
MOLT-4 leukemia = system: MOLT-4 leukemia
OVCAR-5 ovarian = system: OVCAR-5 ovarian
HOP-62 NSCLC = system: HOP-62 NSCLC
TK-10 renal = system: TK-10 renal
HT29 colon = system: HT29 colon
M14 melanoma = system: M14 melanoma
MDA-MB-231 breast = system: MDA-MB-231 breast
ACHN renal = system: ACHN renal
SK-OV-3 ovarian = system: SK-OV-3 ovarian
OVCAR-4 ovarian = system: OVCAR-4 ovarian
SK-MEL-28 melanoma = system: SK-MEL-28 melanoma
CCRF-CEM leukemia = system: CCRF-CEM leukemia
HOP-92 NSCLC = system: HOP-92 NSCLC
NCI/ADR-RES ovarian = system: NCI/ADR-RES ovarian
A498 renal = system: A498 renal
786-0 renal = system: 786-0 renal
RPMI-8226 leukemia = system: RPMI-8226 leukemia
A549 NSCLC = system: A549 NSCLC
HL-60(TB) leukemia = system: HL-60(TB) leukemia
HCC-2998 colon = system: HCC-2998 colon
LOX IMVI melanoma = system: LOX IMVI melanoma
SF-295 CNS = system: SF-295 CNS
MALME-3M melanoma = system: MALME-3M melanoma
MCF7 breast = system: MCF7 breast
HCT-116 colon = system: HCT-116 colon
KM12 colon = system: KM12 colon
MDA-MB-435 = system: MDA-MB-435
DU-145 prostate = system: DU-145 prostate
UO-31 renal = system: UO-31 renal
IGROV1 ovarian = system: IGROV1 ovarian
BT-549 breast = system: BT-549 breast
T-47D breast = system: T-47D breast
NCI-H226 lung = system: NCI-H226 lung
SF-268 CNS = system: SF-268 CNS
SF-539 CNS = system: SF-539 CNS
COLO 205 colon = system: COLO 205 colon
SW-620 colon = system: SW-620 colon
U251 CNS = system: U251 CNS

Q: How did the GI50 (HCT-15 colon) turn out when CN1CCN(c2ccc(N3Cc4ccccc4OC4=C3C(=O)c3c(O)ccc(O)c3C4=O)cn2)CC1 was run?
A: The GI50 was 186 nM.

Q: What about the TGI (HCT-15 colon) of the same molecule?
A: Its TGI is 638 nM.

Q: And the GI50 (SNB-75 CNS)?
A: The GI50 was 907 nM.

Q: And the TGI (SNB-75 CNS)?
A: Its TGI is 5400 nM.

Q: What about the GI50 (NCI-H522 lung) of the same molecule?
A: Its GI50 is 32.2 nM.

Q: And the TGI (NCI-H522 lung)?
A: Its TGI is 134 nM.

Q: And the GI50 (PC-3 prostate)?
A: Its GI50 is 385 nM.

Q: And the TGI (PC-3 prostate)?
A: The TGI was 1630 nM.

Q: What about the GI50 (UACC-257 melanoma) of the same molecule?
A: Its GI50 is 426 nM.

Q: And the TGI (UACC-257 melanoma)?
A: Its TGI is 1170 nM.

Q: What about the GI50 (K-562 leukemia) of the same molecule?
A: The GI50 was 71.3 nM.

Q: What about the TGI (K-562 leukemia) of the same molecule?
A: The TGI was 2530 nM.

Q: What about the GI50 (NCI-H460 lung) of the same molecule?
A: Its GI50 is 1170 nM.

Q: And the TGI (NCI-H460 lung)?
A: Its TGI is 3830 nM.

Q: And the GI50 (OVCAR-3 ovarian)?
A: Its GI50 is 167 nM.

Q: And the TGI (OVCAR-3 ovarian)?
A: Its TGI is 469 nM.

Q: What about the GI50 (SNB-19 CNS) of the same molecule?
A: Its GI50 is 742 nM.

Q: What about the TGI (SNB-19 CNS) of the same molecule?
A: The TGI was 2570 nM.

Q: What about the GI50 (RXF 393 renal) of the same molecule?
A: Its GI50 is 164 nM.

Q: What about the TGI (RXF 393 renal) of the same molecule?
A: Its TGI is 346 nM.

Q: And the GI50 (SK-MEL-2 melanoma)?
A: Its GI50 is 738 nM.

Q: And the TGI (SK-MEL-2 melanoma)?
A: Its TGI is 2230 nM.

Q: What about the GI50 (UACC-62 melanoma) of the same molecule?
A: The GI50 was 330 nM.

Q: And the TGI (UACC-62 melanoma)?
A: The TGI was 1040 nM.

Q: What about the GI50 (EKVX NSCLC) of the same molecule?
A: The GI50 was 244 nM.

Q: And the TGI (EKVX NSCLC)?
A: Its TGI is 1240 nM.

Q: And the GI50 (OVCAR-8 ovarian)?
A: Its GI50 is 370 nM.

Q: What about the TGI (OVCAR-8 ovarian) of the same molecule?
A: The TGI was 4570 nM.

Q: What about the GI50 (SN12C renal) of the same molecule?
A: The GI50 was 316 nM.

Q: What about the TGI (SN12C renal) of the same molecule?
A: Its TGI is 1100 nM.

Q: And the GI50 (HS 578T breast)?
A: Its GI50 is 876 nM.

Q: What about the TGI (HS 578T breast) of the same molecule?
A: Its TGI is greater than 100000 nM.

Q: What about the GI50 (SK-MEL-5 melanoma) of the same molecule?
A: Its GI50 is 1270 nM.

Q: And the TGI (SK-MEL-5 melanoma)?
A: The TGI was 2750 nM.

Q: And the GI50 (MOLT-4 leukemia)?
A: Its GI50 is 89.5 nM.

Q: And the TGI (MOLT-4 leukemia)?
A: Its TGI is 5380 nM.

Q: What about the GI50 (OVCAR-5 ovarian) of the same molecule?
A: Its GI50 is 692 nM.

Q: What about the TGI (OVCAR-5 ovarian) of the same molecule?
A: Its TGI is 1950 nM.

Q: And the GI50 (HOP-62 NSCLC)?
A: Its GI50 is 1550 nM.

Q: What about the TGI (HOP-62 NSCLC) of the same molecule?
A: The TGI was 4880 nM.

Q: What about the GI50 (TK-10 renal) of the same molecule?
A: Its GI50 is 260 nM.

Q: What about the TGI (TK-10 renal) of the same molecule?
A: The TGI was 825 nM.

Q: What about the GI50 (HT29 colon) of the same molecule?
A: Its GI50 is 209 nM.

Q: What about the TGI (HT29 colon) of the same molecule?
A: The TGI was 562 nM.

Q: And the GI50 (M14 melanoma)?
A: Its GI50 is 244 nM.

Q: What about the TGI (M14 melanoma) of the same molecule?
A: Its TGI is 651 nM.

Q: And the GI50 (MDA-MB-231 breast)?
A: Its GI50 is 275 nM.

Q: And the TGI (MDA-MB-231 breast)?
A: The TGI was 706 nM.

Q: What about the GI50 (ACHN renal) of the same molecule?
A: Its GI50 is 57.4 nM.

Q: What about the TGI (ACHN renal) of the same molecule?
A: The TGI was 203 nM.

Q: What about the GI50 (SK-OV-3 ovarian) of the same molecule?
A: Its GI50 is 2920 nM.

Q: And the TGI (SK-OV-3 ovarian)?
A: The TGI was 11400 nM.

Q: What about the GI50 (OVCAR-4 ovarian) of the same molecule?
A: The GI50 was 264 nM.

Q: And the TGI (OVCAR-4 ovarian)?
A: The TGI was 855 nM.

Q: And the GI50 (SK-MEL-28 melanoma)?
A: Its GI50 is 282 nM.

Q: What about the TGI (SK-MEL-28 melanoma) of the same molecule?
A: The TGI was 762 nM.

Q: What about the GI50 (CCRF-CEM leukemia) of the same molecule?
A: Its GI50 is 97.2 nM.

Q: And the TGI (CCRF-CEM leukemia)?
A: The TGI was greater than 33500 nM.

Q: What about the GI50 (HOP-92 NSCLC) of the same molecule?
A: The GI50 was 230 nM.

Q: And the TGI (HOP-92 NSCLC)?
A: Its TGI is 499 nM.

Q: And the GI50 (NCI/ADR-RES ovarian)?
A: The GI50 was 403 nM.

Q: What about the TGI (NCI/ADR-RES ovarian) of the same molecule?
A: The TGI was greater than 100000 nM.

Q: And the GI50 (A498 renal)?
A: Its GI50 is 2150 nM.

Q: And the TGI (A498 renal)?
A: The TGI was 4940 nM.

Q: What about the GI50 (786-0 renal) of the same molecule?
A: Its GI50 is 191 nM.

Q: And the TGI (786-0 renal)?
A: Its TGI is 404 nM.

Q: What about the GI50 (RPMI-8226 leukemia) of the same molecule?
A: The GI50 was 260 nM.

Q: And the TGI (RPMI-8226 leukemia)?
A: The TGI was 901 nM.

Q: What about the GI50 (A549 NSCLC) of the same molecule?
A: The GI50 was 2180 nM.

Q: And the TGI (A549 NSCLC)?
A: The TGI was 6730 nM.

Q: What about the GI50 (HL-60(TB) leukemia) of the same molecule?
A: The GI50 was 135 nM.

Q: What about the TGI (HL-60(TB) leukemia) of the same molecule?
A: Its TGI is 445 nM.

Q: And the GI50 (HCC-2998 colon)?
A: Its GI50 is 1280 nM.

Q: What about the TGI (HCC-2998 colon) of the same molecule?
A: Its TGI is 2780 nM.

Q: And the GI50 (LOX IMVI melanoma)?
A: The GI50 was 215 nM.

Q: And the TGI (LOX IMVI melanoma)?
A: Its TGI is 618 nM.

Q: What about the GI50 (SF-295 CNS) of the same molecule?
A: Its GI50 is 1870 nM.

Q: What about the TGI (SF-295 CNS) of the same molecule?
A: Its TGI is 5000 nM.

Q: And the GI50 (MALME-3M melanoma)?
A: Its GI50 is 89.3 nM.

Q: And the TGI (MALME-3M melanoma)?
A: The TGI was 298 nM.

Q: What about the GI50 (MCF7 breast) of the same molecule?
A: The GI50 was 149 nM.

Q: And the TGI (MCF7 breast)?
A: The TGI was 585 nM.

Q: What about the GI50 (HCT-116 colon) of the same molecule?
A: The GI50 was 113 nM.

Q: And the TGI (HCT-116 colon)?
A: The TGI was 326 nM.

Q: What about the GI50 (KM12 colon) of the same molecule?
A: The GI50 was 1180 nM.

Q: What about the TGI (KM12 colon) of the same molecule?
A: The TGI was 3600 nM.

Q: What about the GI50 (MDA-MB-435) of the same molecule?
A: Its GI50 is 234 nM.

Q: What about the TGI (MDA-MB-435) of the same molecule?
A: The TGI was 575 nM.

Q: What about the GI50 (DU-145 prostate) of the same molecule?
A: The GI50 was 360 nM.

Q: What about the TGI (DU-145 prostate) of the same molecule?
A: Its TGI is 1290 nM.

Q: What about the GI50 (UO-31 renal) of the same molecule?
A: The GI50 was 163 nM.

Q: What about the TGI (UO-31 renal) of the same molecule?
A: Its TGI is 557 nM.

Q: And the GI50 (IGROV1 ovarian)?
A: The GI50 was 272 nM.

Q: What about the TGI (IGROV1 ovarian) of the same molecule?
A: Its TGI is 1010 nM.

Q: And the GI50 (BT-549 breast)?
A: The GI50 was 251 nM.

Q: What about the TGI (BT-549 breast) of the same molecule?
A: The TGI was 723 nM.

Q: What about the GI50 (T-47D breast) of the same molecule?
A: Its GI50 is 184 nM.

Q: What about the TGI (T-47D breast) of the same molecule?
A: Its TGI is 706 nM.

Q: What about the GI50 (NCI-H226 lung) of the same molecule?
A: The GI50 was 2260 nM.

Q: What about the TGI (NCI-H226 lung) of the same molecule?
A: Its TGI is 12000 nM.

Q: What about the GI50 (SF-268 CNS) of the same molecule?
A: The GI50 was 580 nM.

Q: What about the TGI (SF-268 CNS) of the same molecule?
A: The TGI was 2430 nM.

Q: What about the GI50 (SF-539 CNS) of the same molecule?
A: Its GI50 is 233 nM.

Q: And the TGI (SF-539 CNS)?
A: The TGI was 595 nM.

Q: What about the GI50 (COLO 205 colon) of the same molecule?
A: Its GI50 is 126 nM.

Q: And the TGI (COLO 205 colon)?
A: The TGI was 302 nM.

Q: And the GI50 (SW-620 colon)?
A: The GI50 was 196 nM.

Q: What about the TGI (SW-620 colon) of the same molecule?
A: Its TGI is 635 nM.

Q: And the GI50 (U251 CNS)?
A: The GI50 was 397 nM.

Q: And the TGI (U251 CNS)?
A: Its TGI is 1590 nM.
